From ChEMBL document CHEMBL1821574, “Structure-activity relationships of 4-position diamine quinoline methanols as intermittent preventative treatment (IPT) against Plasmodium falciparum” (J Med Chem, 2011)
In brackets after ≈: the same amount, converted by molar mass.

Experiments:
Assay type in all cases: functional
Plasmodium berghei [1] = assay: Antimalarial activity against Plasmodium berghei infected in mouse assessed as host survival at 5 mg/kg, po administered as single dose
Plasmodium berghei [2] = assay: Antimalarial activity against Plasmodium berghei infected in mouse assessed as complete cure at 320 mg/kg, po administered as single dose measured on day 31
Plasmodium falciparum [3] = assay: Antimalarial activity against chloroquine-resistant and mefloquine-sensitive Plasmodium falciparum W2
Plasmodium berghei [4] = assay: Antimalarial activity against Plasmodium berghei infected in mouse assessed as host survival at 40 mg/kg, po administered as single dose
Plasmodium berghei [5] = assay: Antimalarial activity against Plasmodium berghei infected in mouse assessed as complete cure at 160 mg/kg, po administered as single dose measured on day 31
Plasmodium falciparum [6] = assay: Antimalarial activity against mefloquine-resistant and chloroquine-sensitive Plasmodium falciparum D6
Plasmodium berghei [7] = assay: Antimalarial activity against Plasmodium berghei infected in mouse assessed as host survival at 160 mg/kg, po administered as single dose measured on day 31; conditions: 744 h
Plasmodium berghei [8] = assay: Antimalarial activity against Plasmodium berghei infected in mouse assessed as complete cure at 20 mg/kg, po administered as single dose measured on day 31
Plasmodium berghei [9] = assay: Antimalarial activity against Plasmodium berghei infected in mouse assessed as complete cure at 80 mg/kg, po administered as single dose measured on day 31
Plasmodium falciparum [10] = assay: Antimalarial activity against chloroquine, mefloquine and pyrimethamine-resistant Plasmodium falciparum TM91C235
Plasmodium berghei [11] = assay: Antimalarial activity against Plasmodium berghei infected in mouse assessed as host survival at 40 mg/kg, po administered as single dose measured on day 31; conditions: 744 h
Plasmodium berghei [12] = assay: Antimalarial activity against Plasmodium berghei infected in mouse assessed as host survival at 10 mg/kg, po administered as single dose
Plasmodium berghei [13] = assay: Antimalarial activity against Plasmodium berghei infected in mouse assessed as host survival at 20 mg/kg, po administered as single dose measured on day 31; conditions: 744 h
Plasmodium berghei [14] = assay: Antimalarial activity against Plasmodium berghei infected in mouse assessed as host survival at 320 mg/kg, po administered as single dose measured on day 31; conditions: 744 h
Plasmodium berghei [15] = assay: Antimalarial activity against Plasmodium berghei infected in mouse assessed as host survival at 80 mg/kg, po administered as single dose
Plasmodium berghei [16] = assay: Antimalarial activity against Plasmodium berghei infected in mouse assessed as complete cure at 10 mg/kg, po administered as single dose measured on day 31
Plasmodium berghei [17] = assay: Antimalarial activity against Plasmodium berghei infected in mouse assessed as host survival at 320 mg/kg, po administered as single dose
Plasmodium berghei [18] = assay: Antimalarial activity against Plasmodium berghei infected in mouse assessed as host survival at 20 mg/kg, po administered as single dose
Plasmodium berghei [19] = assay: Antimalarial activity against Plasmodium berghei infected in mouse assessed as host survival at 10 mg/kg, po administered as single dose measured on day 31; conditions: 744 h
Plasmodium berghei [20] = assay: Antimalarial activity against Plasmodium berghei infected in mouse assessed as complete cure at 40 mg/kg, po administered as single dose measured on day 31
Plasmodium berghei [21] = assay: Antimalarial activity against Plasmodium berghei infected in mouse assessed as host survival at 5 mg/kg, po administered as single dose measured on day 31; conditions: 744 h
Plasmodium berghei [22] = assay: Antimalarial activity against Plasmodium berghei infected in mouse assessed as host survival at 80 mg/kg, po administered as single dose measured on day 31; conditions: 744 h
Plasmodium berghei [23] = assay: Antimalarial activity against Plasmodium berghei infected in mouse assessed as complete cure at 5 mg/kg, po administered as single dose measured on day 31
Plasmodium berghei [24] = assay: Antimalarial activity against Plasmodium berghei infected in mouse assessed as host survival at 160 mg/kg, po administered as single dose
Plasmodium falciparum [25] = assay: Antimalarial activity against chloroquine, mefloquine and pyrimethamine-resistant Plasmodium falciparum TM90C2A
Plasmodium falciparum [26] = assay: Antimalarial activity against chloroquine-sensitive and mefloquine-resistant Plasmodium falciparum D6 by SYBR Green I-based fluorescence assay
Plasmodium falciparum [27] = assay: Antimalarial activity against chloroquine-sensitive and mefloquine-resistant Plasmodium falciparum D6 assessed as inhibition of [3H]hypoxanthine incorporation by liquid scintillation spectrometry
Plasmodium falciparum [28] = assay: Antimalarial activity against chloroquine-resistant and mefloquine-sensitive Plasmodium falciparum W2 assessed as inhibition of [3H]hypoxanthine incorporation by liquid scintillation spectrometry
Plasmodium falciparum [29] = assay: Antimalarial activity against chloroquine, mefloquine and pyrimethamine-resistant Plasmodium falciparum TM91C235 assessed as inhibition of [3H]hypoxanthine incorporation by liquid scintillation spectrometry
Plasmodium falciparum [30] = assay: Antimalarial activity against chloroquine, mefloquine and pyrimethamine-resistant Plasmodium falciparum TM91C235 by SYBR Green I-based fluorescence assay

Compound	MST (Plasmodium berghei [1])	Activity (Plasmodium berghei [2])	IC90 (Plasmodium falciparum [3])	MST (Plasmodium berghei [4])	Activity (Plasmodium berghei [5])	IC90 (Plasmodium falciparum [6])	survival at 160 mg/kg (Plasmodium berghei [7])	Activity (Plasmodium berghei [8])	Activity (Plasmodium berghei [9])	IC90 (Plasmodium falciparum [10])	survival at 40 mg/kg (Plasmodium berghei [11])	MST (Plasmodium berghei [12])	survival at 20 mg/kg (Plasmodium berghei [13])	survival at 320 mg/kg (Plasmodium berghei [14])	MST (Plasmodium berghei [15])	Activity (Plasmodium berghei [16])	MST (Plasmodium berghei [17])	MST (Plasmodium berghei [18])	survival at 10 mg/kg (Plasmodium berghei [19])	Activity (Plasmodium berghei [20])	also measured
O[C@H](CNCCNC1CC1)c1cc(C(F)(F)F)nc2c(C(F)(F)F)cccc12	6.6 days	80%	0.011 µg/mL (≈ 0.027 µM)	10 days	0%	0.027 µg/mL (≈ 0.0663 µM)	0%	0%	0%	0.077 µg/mL (≈ 0.189 µM)	0%	6.6 days	0%	100%	16 days	0%	30 days	6.8 days	0%	0%	survival at 5 mg/kg (Plasmodium berghei [21]): 0%; survival at 80 mg/kg (Plasmodium berghei [22]): 0%; Activity (Plasmodium berghei [23]): 0%; MST (Plasmodium berghei [24]): 19 days; IC90 (Plasmodium falciparum [25]): 0.073 µg/mL (≈ 0.179 µM)
OC(c1cc(C(F)(F)F)nc2c(C(F)(F)F)cccc12)C1CCCCN1 (centres undefined) [MEFLOQUINE]	17 days	50%	0.0067 µg/mL (≈ 0.0177 µM)	26 days	20%	0.016 µg/mL (≈ 0.0423 µM)	50%	10%	30%	0.053 µg/mL (≈ 0.14 µM)	56%	15 days	30%	60%	28 days	0%	24 days	22 days	0%	36%	IC90 (Plasmodium falciparum [26]): 0.015 µg/mL (≈ 0.0396 µM); IC90 (Plasmodium falciparum [27]): 0.016 µg/mL (≈ 0.0423 µM); IC90 (Plasmodium falciparum [28]): 0.0067 µg/mL (≈ 0.0177 µM); IC90 (Plasmodium falciparum [29]): 0.053 µg/mL (≈ 0.14 µM); survival at 5 mg/kg (Plasmodium berghei [21]): 20%; survival at 80 mg/kg (Plasmodium berghei [22]): 70%; IC90 (Plasmodium falciparum [30]): 0.042 µg/mL (≈ 0.111 µM); Activity (Plasmodium berghei [23]): 20%; MST (Plasmodium berghei [24]): 27 days
